Results reported in patent US11629192B2, “Methods and pharmaceutical compositions for the treatment of diseases mediated by the NRP-1/OBR complex signaling pathway” (INSERM (Institut National de la Sante et de la Recherche …, priority 2014, dated 2023).
“Also recorded” adds a separate entry of the source.

Experiments:
NRP-1 = NRP-1 (Homo sapiens, UniProt O14786); experiment: Direct binding of Leptin to NRP-1 by HTRF and confocal microscopy
Text: NRP-1 has been reported to bind directly VEGF increasing thus the binding affinity of VEGF to its receptor VEGFR2 […] and Sema3A enabling thus its binding to Plexin 3A. Our study led us to highlight a new mechanism of NRP-1 function. […] NRP-1 repression by siNRP-1 decreased the BRET signal and OBR oligomerization.

[1] = tested on: T47D-NRP-1-RFP xenografts; experiment: T47D-NRP-1-RFP xenografts in Nude mice; format: in vivo
Text: (§1) First MBA-MB-231 and T47D breast cancer cells line were selected for their high and undetectable NRP-1 expression respectively and the expression of Leptin receptor (OBR). In order to investigate NRP-1 and Leptin association in breast cancer cell line migration, we proceeded to NRP-1 expression silencing in MDA-MB-231 using either siRNA or shRNA approaches or NRP-1 overexpression in T47D. […] In contrast Leptin induced MDA-MB-231 migration that was decreased in siNRP-1 conditions. The in vitro data were confirmed in vivo by MDA-MB-231 and T47D xenografts in Nude mice. Modulation of NRP-1 expression either by shRNA silencing in MDA-MB-231 or by overexpression in T47D induced an increase of proliferation and a decrease of lymph node infiltration by MDA-MB-231-shNRP-1 and a decrease of proliferation and an increase of lymph node infiltration by T47D-NRP-1-RFP in mice treated with Leptin.
This need to be more investigated and may be a new strategy for combined anti-Leptin and anti-VEGF therapies in breast cancer. […] In vitro and in vivo data are a direct evidence of NRP-1 and Leptin association in breast cancer cell line migration. This implication of Leptin and NRP-1 are in agreement of published data but with no association between Leptin and NRP-1. […]

MDA-MB-231 cells = experiment: MDA-MB-231 cell migration / transmigration through insert; format: cell-based, human
Text: (§2) FIG. 5. NRP-1, OBR and leptin interactions confirmation using a Bio-Layer Interferometry (BLI) technology (fortebio.com/bli-technology.html): A-Leptin (OB) interaction to OBR is used as a positive control. Human neuropilin-1 (hNRP-1) interact with human OBR with a high affinity and specifically with human leptin (hOB) but not with murine leptin (mOB). VEGF165 binding to hNRP-1 is used as a positive control. B-Leptin and Avastin association increases MDA-MB231 cells transmigration through […] pore Insert. Avastin treatment may prevent a negative feedback control by VEGF of the pro-angiogenic signaling pathway of Leptin. VEGF binds to OBR which confirms our hypothesis that should be more investigated.
as §1
Leptin induced in vitro MDA-MB-231 migration that was decreased by NRP-1 repression using siRNA. Lel Xu et al have reported a direct evidence of NRP-1 up-regulation in tumors treated by anti-VEGF (Bevacizumab). […] This observation can be a first explanation of breast cancer therapy failure (increase of Progression survival while decreasing overall survival) by Bevacizumad and that was revoked by the FDA (Food and Drugs Administration, US).

P-NRP-1 = experiment: NRP-1 (P-NRP-1) and OBR phosphorylation in MDA-MB-231, immunostaining / coimmunoprecipitation; format: cell-based, human; conditions: MDA-MB-231 serum starved, Leptin (10 nM)
Text: Beside the modulation of the NRP-1/OBR complex formation by Leptin and OBR phosphorylation, we postulated a possible phosphorylation of NRP-1 that can regulate the translocation of the complex to the nucleus. Two putative phosphorylation sites of NRP-1 have been reported with no more investigation. The first one at the extracellular B domain as reported by Shintani et al in 2009 with no antibody available and the second one at the Threonine 916 located in the cytoplasmic domain as it was reported by Kyle et al in 2011. Since a specific antibody against P-NRP-1 at the T916 was available, we investigated by coimmunoprecipitation the detection of P-NRP-1 in MDA-MB-231 after serum starvation and stimulation by Leptin (10 nM). […] To confirm this phosphorylation state, we investigated the possible implication of a Serine/threonine Kinase CK2 using one of its first chemical inhibitor (DRB). In serum starved condition, P-NRP-1 was detected as polarized spot in the cytoplasm and the nucleus of MDA-MB-231. […] The inhibition was specific since, in stimulated condition combined with DMSO at the same dilution of DRB, we were able to observe a diffuse nuclear P-NRP-1 staining.

[2] = tested on: T47D-NRP-1-RFP xenografts; experiment: Transcriptome of T47D-NRP-1-RFP xenografts treated or not with Leptin; format: in vivo, Nude mice; conditions: Leptin treated vs not treated T47D-NRP-1-RFP xenografts
Text: Although the Chip-Seq was realized on MDA-MB-231, we opted to realize a transcriptome of T47D overexpressing NRP-1-RFP xenografts compared to T47D-wt and T47D-RFP treated or not with Leptin regarding to the lymph node infiltration induced by the NRP-1 overexpression and its increase by Leptin treatment. To determine any direct association of NRP-1 in gene expression, we realize first a global analysis of transcriptome of T47D-NRP-1 xenografts treated and not treated with Leptin (n=8) compared to T47D-wt and T47D-RFP xenografts treated and not treated with Leptin (n=8). […] The analysis of gene expression in Leptin treated T47D-NRP-1-RFP compared to no treated xenografts, highlighted 66 genes with 31 genes enriched in the Chip-Seq of MDA-MB-231 and that were not detected in T47D-wt and T47D-RFP treated or not with Leptin. Only 4 genes enriched in the Chip-Seq contained peaks associated to transcription factor binding site such as FUS (fused in sarcoma, fold increase 1.79; p=0.045) for Pol2 and C12orf45 (chromosome 12 open reading frame, fold increase 1.29; p=0.03) for CTCF. […] Since Plasminogen Activator Inhibitor 1 (PAI.1) related to SERPINE1 gene has been associated to breast cancer invasion and metastasis, we evaluated PAI.1 expression by immunostaining in T47D-NRP-1-RFP xenografts compared to T47D-wt and T47D-RFP.

[3] = target: Human neuropilin-1 (hNRP-1) (Homo sapiens, UniProt O14786); experiment: Bio-Layer Interferometry (BLI) interaction with hNRP-1; format: binding
Text: as §2

## Leptin: small non glycosylated protein, ligand of OBR
NRP-1
  direct binding to NRP-1: unable to bind directly
[1]; Leptin treatment, human KL1 staining
  lymph node infiltration by T47D-NRP-1-RFP: significantly increased
[1]; T47D overexpressing NRP-1 xenograft treated with Leptin
  tumor growth: tumor growth decrease
MDA-MB-231 cells; 10 μg/ml of Bevacizumab plus Leptin
  MDA-MB-231 migration induced by Bevacizumab, effect of Leptin: increased
MDA-MB-231 cells; in vitro, Leptin alone
  MDA-MB-231 migration: increased; also recorded: induced
P-NRP-1
  NRP-1 phosphorylation (T916): phosphorylated
[2]; p=0.03
  C12orf45 gene expression, fold increase: 1.29 fold
[2]; p=0.045
  FUS gene expression, fold increase: 1.79 fold
[3]
  interaction with hNRP-1: interact
